Laboratory results from patent US12385042B2, “Cell-penetrating peptides” (VECTIOPEP OÜ, priority 2019, dated 2025).
Entries after “also recorded” stand apart in the source; their conditions may differ. Where a SMILES comes first, the peptide text is derived from it. Bridges are numbered along the chain shown (N, C = ends). Roman numbers before positions name the chains, in order. [ ]: non-standard residue; d: D form. The star is where a group is joined. Arachidoyl = CCCCCCCCCCCCCCCCCCCC(=O)*; Stearoyl = CCCCCCCCCCCCCCCCCC(=O)*; Orn = NCCC[C@H](N)C(=O)O

Experiments:
[1] = test system: U87 MG-luc2 human glioma cells, stably expressing luc2; test: Luciferase gene downregulation by CPP/siRNA (siLuc2) complexes; format: cell-based; settings: for Red (%) (reduction, based on remaining luminescence on U87 cells post-treatment) / luciferase downregulation efficiency (in words): CPP/siRNA complexes; for Red (%) (reduction, based on remaining luminescence on U87 cells post-treatment): siRNA against luciferase; for luciferase downregulation efficiency (in words): comparison between CPPs
Description: (§1) For assessing the siRNA mediated RNAi, CHO-GFP or U87-luc2 cells (5×10^5 cells per well) were seeded on a 24-well plate a day prior to the experiment and grown in serum containing media. On experiment day, prior to adding pre-formed complexes ( 1/10th of the final volume per well), media was replaced with fresh serum containing medium.
(§2) For complex formation, peptide was mixed with luc2 siRNA (sense 5′-[…]-3′ (SEQ ID NO:7), antisense 5′-[…] 3′ (SEQ ID NO:8), Metabion, Germany) or with siRNA against GFP (5′-[…] (SEQ ID NO:9), 3′-[…] (SEQ ID NO:10)) in mQ water (pH 5.3-6.3) using peptide to siRNA molar ratios (MR is the ratio of peptide to siRNA) […] and incubated at RT for 1 h. For siLuc2, the final concentration in media was 25 nM and for siGFP 100 nM. Cells were co-incubated with complexes for 4 h (37° C., 5% CO2), thereafter fresh serum containing media was added and followed by further incubation (20 h for siLuc2 or 44 h for siGFP complexes). Luciferase gene downregulation was measured from cell lysates with Promega luciferase assay system (Promega, Sweden) in combination with GLOMAX 96 microplate luminometer equipped with GLOMAX 1.9.2 software (Promega). GFP was measured after treatment from cell lysates on black 96-well plates by measuring total fluorescence (Symergy MX, BioTek Instruments, USA equipped with Gen5 1.10 software). The results were normalized to the protein content of each sample (DC Protein Assay, BioRad, USA).
Luciferase activity was determined as described in previous paragraph.
For determination of pH dependency on the transfection efficiency, complexes were formed at MR30, incubated and diluted before addition to cells to obtain siRNA final concentration 10 nM in transfection media. HEPES buffer supplemented with 10% FBS was used as transfection media. Complexes were co-incubated with cells for 4 h and then media was replaced with cell growth media. After further 20 h incubation cells were lysed and analyzed as described previously.
The experiment was carried out in serum containing media (10% FBS). CPP/siRNA complexes were formed at different molar ratios with siRNA concentration kept constant (50 nM in transfection media). Luminescence from luciferin-luciferase reaction was measured at 24 hours post-treatment from cell lysate. Results were normalized to protein content and luminescence values from untreated cells (100%).

[2] = Negative staining TEM of CPP/siRNA nanoparticles; format: physicochemical; settings: CPP/siRNA complexes at MR30
Description: For the morphological analysis the CPP/siRNA complexes were assembled as described above at MR30. For negative staining, copper grids were covered with Formvar film and carbon layer using Leica EM ACE600 carbon coater (Leica Microsystems, Germany). Then, 10 μL of each sample was absorbed to the grids for 2 min and excess of solution was gently removed. Samples were then exposed to 2% aqueous uranyl acetate solution for 1 min. After removing excess stain with filter paper, the samples were allowed to air-dry. The samples were examined at 120 kV accelerating voltage on FEI Tecnai G2 Spirit electron microscope (FEI, The Netherlands).

murine red blood cells = test: Membrane activity assay on murine red blood cells: hemolysis; format: cell-based, mouse; settings: for HC50 Free peptide: pH 7.5; for pH dependent hemolytic activity (in words): buffer pH 5.5-7.5
Description: For evaluation of membrane activity of peptides, hemolysis assay was used. For this whole blood was collected from mouse (adult, BALB/c) saphenous vein into a heparinized collection tube. Blood was centrifuged (2300× g, 15 min) to separate cells (red blood cells-RBC) from the plasma. RBCs were washed according to following procedures.
RBCs were washed with 10 ml 0.9% NaCl saline and centrifuged (600× g, 15 min). Supernatant was discarded after each centrifugation. This was repeated at least 3 times. RBCs were re-suspended in 5 ml saline and distributed equally to tubes and centrifuged (600× g, 15 min). The cells were washed and re-suspended in 2× PBS with the required pH (pH 5.5-7.5). The hemoglobin content in stocks was measured after lysis of cells with equal volume of 0.1% Triton X100 supplemented with 5% glucose. The cell suspension was diluted accordingly for each pH value to obtain similar concentration range of hemoglobin in stocks. To each 100 ul of peptide solution 100 ul of 10% glucose was added, mixed, and equal volume (200 ul) of RBC in 2× PBS were added and gently mixed. Peptide solution with RBCs was incubated at 37° C. for 1 h with gentle mixing (max 300 rpm) after which samples were centrifuged to pellet intact cells from the solution. Hemoglobin from lysed cells was determined from each sample from the supernatant on transparent 96-well plates by measuring the absorbance at 540 nm.
Controls were incubated in similar manner as samples. As a non-hemolysis control mQ supplemented with glucose (0%) was used and for hemolytic control 0.1% TritonX-100 with glucose (100%) was used (cells are suspended in 2× PBS before addition). Final percent was calculated as follows: […]
For hemolytic concentration determination 2× PBS at pH 7.5 was used for incubation and 1× PBS at pH 7.5 was used for washing. Everything else is as described in previous paragraph.

[3] = Fluorescent dye (PicoGreen) intercalation and heparin displacement assay of CPP/siRNA complexes; format: physicochemical
Description: Complexation of siRNA and CPPs was assessed by Quant-iT™ PicoGreen® (PG) (Thermo Fisher Scientific, USA) assay in mQ water. Complexes were prepared as described previously, following addition of diluted PG. For detection, complexes (⅕ of volume), water (3/5) and PG (1/5) working dilution was incubated for 5 minutes and fluorescence was measured by fluorimeter (λex=492 nm, λem=535 nm) (SynergyMx, BioTek). For heparin displacement, instead of water, heparin salt solution at different concentrations were used and complexes incubated at 37° C. for 30 min before addition of PG dilution. Complex formation was also confirmed by gel electrophoresis (details in section 2.11).

[4] = test system: CHO stably expressing green fluorescent protein (GFP); test: GFP gene downregulation by CPP/siGFP complexes (lysate fluorescence, FACS, confocal); format: cell-based
Description: as §1, §2
For flow cytometry analysis (FACS) analysis CHO-GFP cells were seeded and treated as described previously. After incubation, cells were washed with 1× PBS and detached from plates with trypsin-EDTA (0.25%), and re-suspended in PBS supplemented with FBS (5%) and transferred to transparent U-bottom 96-well plates. FACS was carried out with BD LSR II flow cytometer (BD Biosciences, San Jose, CA, USA) equipped with a 488 nm argon laser. Population of viable cells was determined from scatter plot: forward scattered plot (FSC) vs. side scattered light (SSC) plot. A minimum of 10,000 events from the viable cell population per sample were analyzed using BD FACS Diva software. Results are shown as the population with GFP signal lower than that of 0.1% of untreated cells.
For confocal microscopy 2×10^5 cells per chamber were seeded on NUNC 8-chamber plates. After treatment with complexes (25 ul of pre-formed CPP/siRNA complexes added to cells in 225 ul serum containing media), incubated (48 h) and GFP florescence images of cells were captured using confocal microscope Zeiss LSM 710 and excitation at 488 nm (493-616 filter).

CHO cells = test: pDNA (p-CMV-Luc2) transfection with CPP/pDNA complexes; format: cell-based; settings: serum containing medium, CR1 to CR4, 24 h
Description: For the pDNA transfection experiment, CPP/pDNA nanoparticles were prepared by mixing […] of plasmid (p-CMV-Luc2) with the peptide in MQ water. Charge ratios from 1 to 4 (CR, equivalent to the nitrogen-to-phosphate ratio) were used. 50,000 CHO cells were seeded 24 hr before the experiment into 24-well plates, treated with complexes for 4 h in serum-containing medium, incubated for additional 20 hr, lysed and luminescence was measured.

Compound	Red (%) (reduction, based on remaining luminescence on U87 cells post-treatment) [1]	length or size of elongated particles, conglomerates or aggregates (TEM) [2]	luciferase downregulation efficiency (in words) [1]	pDNA delivery / gene expression in vitro (in words) (CHO cells)	further results
CCCCCCCCCCCCCCCCCC(=O)N[C@@H](C)C(=O)NCC(=O)N[C@@H](Cc1ccc(O)cc1)C(=O)N[C@@H](CC(C)C)C(=O)N[C@@H](CC(C)C)C(=O)NCC(=O)NCCC[C@H](N)C(=O)N[C@H](C(=O)N[C@@H](CC(N)=O)C(=O)N[C@@H](CC(C)C)C(=O)N[C@@H](CCCCN)C(=O)N[C@@H](C)C(=O)N[C@@H](CC(C)C)C(=O)N[C@@H](C)C(=O)N[C@@H](C)C(=O)N[C@@H](CC(C)C)C(=O)N[C@@H](C)C(=O)N[C@@H](CCCCN)C(=O)N[C@@H](C)C(=O)N[C@H](C(=O)N[C@@H](CC(C)C)C(N)=O)[C@@H](C)CC)[C@@H](C)CC [NF55, reference compound] (I: H-[Orn]INLKALAALAKAIL-NH2 / II: Stearoyl-AGYLLG; amide I:1-II:C)	75%	up to 100 nm			nanoparticle diameter / size (TEM) [2]: 10-50 nm; HC50 CPP/siRNA complex (peptide concentration) (murine red blood cells; CPP/siRNA complexes at MR30): 3.2 µM; HC50 Free peptide (murine red blood cells; free peptide): 1.7 µM; increase of hemolytic activity at pH 5.5 (murine red blood cells; peptide 0.75 uM, buffer pH 5.5): 25%; pH dependent hemolytic activity (in words) (murine red blood cells; peptide 0.75 uM): least influenced by the pH decrease; siRNA accessible ([3]; 0.5 mg/ml heparin, complexes pre-formed at MR30): 10%
CCCCCCCCCCCCCCCCCCCC(=O)N[C@@H](Cc1c[nH]cn1)C(=O)N[C@@H](Cc1c[nH]cn1)C(=O)N[C@@H](Cc1c[nH]cn1)C(=O)N[C@@H](Cc1c[nH]cn1)C(=O)N[C@@H](Cc1c[nH]cn1)C(=O)N[C@@H](Cc1c[nH]cn1)C(=O)N[C@@H](Cc1ccc(O)cc1)C(=O)N[C@@H](Cc1c[nH]cn1)C(=O)N[C@@H](Cc1c[nH]cn1)C(=O)NCC(=O)NCCC[C@H](N)C(=O)N[C@H](C(=O)N[C@@H](CC(C)C)C(=O)N[C@@H](CC(C)C)C(=O)N[C@@H](CCCCN)C(=O)N[C@@H](C)C(=O)N[C@@H](CC(C)C)C(=O)N[C@@H](CCCCN)C(=O)N[C@@H](C)C(=O)N[C@@H](CC(C)C)C(=O)N[C@@H](C)C(=O)N[C@@H](CCCCN)C(=O)N[C@@H](C)C(=O)N[C@H](C(=O)N[C@@H](CC(C)C)C(N)=O)[C@@H](C)CC)[C@@H](C)CC [NF72] (I: H-[Orn]ILLKALKALAKAIL-NH2 / II: Arachidoyl-HHHHHHYHHG; amide I:1-II:C)	80%		significantly less efficient than other compared CPPs		remaining reporter activity ([1]; molar ratio 30 (MR30, peptide to siRNA), untreated cells 100%): 34%; HC50 Free peptide (murine red blood cells; free peptide): >10 µM; hemolytic activity of free peptide (in words) (murine red blood cells; free peptide, up to 10 uM): less hemolytic than that of other peptides; pH dependent hemolytic activity (in words) (murine red blood cells; peptide 0.75 uM): almost no effect at physiologic pH, but lysed almost all cells at pH 5.5; cells with downregulated reporter gene (GFP signal below threshold), FACS ([4]; CHO-GFP, CPP/siGFP complexes): 40%; GFP signal in confocal images ([4]; live cells treated with CPP/siGFP complexes): higher GFP signal when compared to complexes formed with peptides with less histidines in sequence; accessibility of siRNA in complexes (dye intercalation) ([3]; MR30, no heparin): low accessibility of siRNA
HHHHYHHGO^eILLKALKALAKAIL [NF700, group H6; without fatty acid; C-terminally amidated]	6%	exceed 500 nm	do not reveal any significant luciferase silencing activity		
HHHHYHHGO^eILLKALKALAKAIL [NF702, group H6; C18 saturated fatty acid on N-terminus; C-terminally amidated]	70%			almost yielded the same gene expression level as that of NF70 and NF55; also recorded: promising vectors for pDNA transfection	
HHHHYHHGO^eILLKALKALAKAIL [NF703, group H6; C22 saturated fatty acid on N-terminus; C-terminally amidated]	73%	10-20 nm	RNA interference effect decreases again		
HHHYHHGO^eILLKALKALAKAIL [NF716, group H5; C20 saturated fatty acid on N-terminus; C-terminally amidated]	65%			promising vectors for pDNA transfection	
HYHHGO^eILLKALKALAKAIL [NF727, group H3; C22 saturated fatty acid on N-terminus; C-terminally amidated]	43%			promising vectors for pDNA transfection	
